In general, Ki refers to a dissociation constant, usually derived from enzyme kinetics or from competition with a known ligand. In general, IC50 refers to the midpoint of a concentration-inhibition curve. Higher therefore signals weaker potency in that assay. What is called CC50 is the concentration giving 50% cytotoxicity. A high value points to lower toxicity to the cells. A word on the AUC: it is concentration integrated over time.

This is an account of results in ChEMBL document CHEMBL1148691, “Inhibitors of hepatitis C virus NS3.4A protease. Effect of P4 capping groups on inhibitory potency and pharmacokinetics” (Bioorg Med Chem Lett, 2007).

The nature of series [1]: Inhibition of HCV NS3 4A protease. Also noted: species or system Hepacivirus hominis.
The test system of a further series is Hepatitis C virus. Kind of series: Inhibition of HCV replicon RNA production in HUh7 cells. Type of series: functional, organism-based, Hepacivirus hominis. The settings on record: Huh-7. In general terms: A replicon is a self-replicating genome or part of one, used to study replication in cells.
A short description of series [2]: Cytotoxicity against Huh7 cells by MTS assay. The settings on record: human. Type of series: cell-based, Huh-7. (Tetrazolium dyes change colour on reduction, which living cells bring about.)
The nature of series [3]: Selectivity index, ratio of CC50 for Huh7cells to IC50 for HCV. The format is functional.
The subject of series [4] is Mus musculus. Kind of series: AUC(0 to 8 hrs) in CD1 mouse liver at 50 mg/kg, po. Also noted: dose 50 mg/kg, route oral. Type of series: ADME, organism-based. The settings on record: in vivo, 6 h.
Series [5] concerns Mus musculus. In words: AUC(0 to 8 hrs) in CD1 mouse plasma at 50 mg/kg, po. The format is ADME, organism-based. The arrangement: dose 50 mg/kg, route oral. The settings on record: in vivo, 6 h.
In another series the test system is Liver. Kind of series: Drug level in CD1 mouse liver at 50 mg/kg, po. The format is ADME, organism-based. The arrangement: dose 50 mg/kg, route oral. The settings on record: in vivo, read-out: Activity.
Another series deals with Plasma. Kind of series: Drug level in CD1 mouse plasma at 50 mg/kg, po. The format is ADME, organism-based. The arrangement: dose 50 mg/kg, route oral. The settings on record: in vivo.
Series [6] in a line: Ratio of drug level in CD1 mouse liver to IC50 for HCV. The format is functional, tissue-based.

Molecules are shown by their SMILES.

Regarding `CCC[C@H](NC(=O)[C@@H]1C[C@@H]2CCCC[C@@H]2N1C(=O)[C@@H](NC(=O)[C@@H](NC(=O)C(=O)NC1CC1)C1CCCCC1)C(C)(C)C)C(=O)C(=O)NC1CC1`, in series [1], the Ki came out at 110 nM. In the series with Hepatitis C virus, this compound yielded an IC50 of 270 nM. In series [2], the CC50 is greater than 100000 nM. Moreover, the Selectivity index in series [3] was greater than 375.
The matching figures for `CCC[C@H](NC(=O)[C@@H]1C[C@@H]2CCCC[C@@H]2N1C(=O)[C@@H](NC(=O)[C@@H](NC(=O)c1ccoc1)C1CCCCC1)C(C)(C)C)C(=O)C(=O)NC1CC1`: 240 nM, 1400 nM, greater than 100000 nM and greater than 71.
As for `CCC[C@H](NC(=O)[C@@H]1C[C@@H]2CCCC[C@@H]2N1C(=O)[C@@H](NC(=O)[C@@H](NC(=O)C(=O)NCc1ccccc1)C1CCCCC1)C(C)(C)C)C(=O)C(=O)NC1CC1`, in series [1], the Ki was 140 nM. The same compound had an IC50 in the series on Hepatitis C virus of 260 nM. For the same compound, in series [2], the CC50 is greater than 100000 nM. Also, the Selectivity index in series [3] was greater than 380.
Consider `CCC[C@H](NC(=O)[C@@H]1C[C@@H]2CCCC[C@@H]2N1C(=O)[C@@H](NC(=O)[C@@H](NC(=O)c1ccccn1)C1CCCCC1)C(C)(C)C)C(=O)C(=O)NC1CC1`, for which the Ki in series [1] worked out at 520 nM. This compound returned an IC50 in the series with Hepatitis C virus of 1900 nM. In series [2], the CC50 is greater than 100000 nM. Moreover, in [3], the Selectivity index was greater than 52.
`CCC[C@H](NC(=O)[C@@H]1[C@H]2CCC[C@H]2CN1C(=O)[C@@H](NC(=O)[C@@H](NC(=O)c1ncc[nH]1)C1CCCCC1)C(C)(C)C)C(=O)C(=O)NC1CC1`: the affinity in [1], expressed as Ki, was 30 nM. This compound also displayed an IC50 in the series with Hepatitis C virus of 200 nM. In addition, the AUC in the series on Mus musculus [4] was determined as 10.5 µM·h; with Mus musculus [5], 0.36 µM·h. Further, the concentration in the series on Liver turned out to be 1300 nM; in the series with Plasma it was 40 nM. The Ratio in [6] is 52.
In series [1], `CCC[C@H](NC(=O)[C@@H]1C[C@@H]2CCCC[C@@H]2N1C(=O)[C@@H](NC(=O)[C@@H](NC(=O)c1cccnc1)C1CCCCC1)C(C)(C)C)C(=O)C(=O)NC1CC1` had a Ki of 240 nM. Further, the midpoint of inhibition in the series with Hepatitis C virus, the IC50, lay at 1700 nM. Besides, the CC50 in series [2] is greater than 100000 nM. Moreover, the Selectivity index in [3] was greater than 58.
As to `CCC[C@H](NC(=O)[C@@H]1C[C@@H]2CCCC[C@@H]2N1C(=O)[C@@H](NC(=O)[C@@H](NC(=O)c1cc([N+](=O)[O-])c[nH]1)C1CCCCC1)C(C)(C)C)C(=O)C(=O)NC1CC1`, the Ki in series [1] came to 50 nM. Inhibition in the series with Hepatitis C virus was half-maximal at 370 nM (IC50). The compound further returned a CC50 in series [2] greater than 100000 nM. For the same compound, the Selectivity index in [3] was greater than 270. The compound also registered an AUC in the series on Mus musculus [4] of 0.06 µM·h. The concentration with Liver came out at 10 nM. Further, the Ratio in series [6] came to 0.03.
In series [1], `CCC[C@H](NC(=O)[C@@H]1C[C@@H]2CCCC[C@@H]2N1C(=O)[C@@H](NC(=O)[C@@H](NC(=O)c1cnccn1)C1CCCCC1)C(C)(C)C)C(=O)C(=O)NC1CC1` showed a Ki of 150 nM. The compound also had an IC50 in the series on Hepatitis C virus of 1100 nM. In addition, half-maximal cytotoxicity in series [2] (CC50) was put at 47000 nM. For the same compound, in series [3], the Selectivity index is 43. For the same compound, the AUC in the series with Mus musculus [4] was 2.9 µM·h; in the series on Mus musculus [5], 1.5 µM·h. The concentration came out at 360 nM in the series on Liver and 180 nM in the series with Plasma. The Ratio in series [6] was found to be 0.33.
The compound `CCC[C@H](NC(=O)[C@@H]1C[C@@H]2CCCC[C@@H]2N1C(=O)[C@@H](NC(=O)[C@@H](NC(=O)c1ncc[nH]1)C1CCCCC1)C(C)(C)C)C(=O)C(=O)NC1CC1` returned a Ki in [1] of 120 nM. The compound also came in with an IC50 in the series with Hepatitis C virus of 230 nM. In series [2], the CC50 is greater than 100000 nM. In addition, the Selectivity index in series [3] was greater than 442. In addition, the AUC with Mus musculus [4] stood at 0.47 µM·h; in the series with Mus musculus [5] it was 0.05 µM·h. The results for the concentration in the series on Liver and in the series on Plasma were 60 nM and 10 nM, respectively. Further, in [6], the Ratio worked out at 0.26.
Consider `CCC[C@H](NC(=O)[C@@H]1C[C@@H]2CCCC[C@@H]2N1C(=O)[C@@H](NC(=O)[C@@H](NC(=O)c1cnc2ccccc2n1)C1CCCCC1)C(C)(C)C)C(=O)C(=O)NC1CC1`, for which the affinity in [1] corresponds to a Ki of 440 nM. Besides, in the series on Hepatitis C virus, 1200 nM corresponded to half-maximal inhibition (IC50). Further, in series [2], the CC50 was greater than 100000 nM. For the same compound, the Selectivity index in [3] is greater than 81.
`CCC[C@H](NC(=O)[C@@H]1C[C@@H]2CCCC[C@@H]2N1C(=O)[C@@H](NC(=O)[C@@H](NC(=O)c1ccc[nH]1)C1CCCCC1)C(C)(C)C)C(=O)C(=O)NC1CC1` registered a Ki in [1] of 90 nM. The compound further registered an IC50 in the series on Hepatitis C virus of 500 nM. The compound further displayed a CC50 in series [2] greater than 100000 nM. Further, in series [3], the Selectivity index is greater than 201. The AUC in the series with Mus musculus [4] was 1.3 µM·h; in the series on Mus musculus [5], 0.36 µM·h. For the same compound, the results for the concentration with Liver and in the series with Plasma were 170 nM and 40 nM, respectively. In addition, in series [6], the Ratio was found to be 0.34.
Compound `CCC[C@H](NC(=O)[C@@H]1C[C@@H]2CCCC[C@@H]2N1C(=O)[C@@H](NC(=O)[C@@H](NC(=O)C1(O)CCCC1)C1CCCCC1)C(C)(C)C)C(=O)C(=O)NC1CC1` yielded a Ki in series [1] of 640 nM. In the series with Hepatitis C virus, this compound yielded an IC50 of 1600 nM. The compound further gave a CC50 in series [2] greater than 100000 nM. Also, the Selectivity index in [3] is greater than 64.
In the case of `CCC[C@H](NC(=O)[C@@H]1C[C@@H]2CCCC[C@@H]2N1C(=O)[C@@H](NC(=O)[C@H](C1CCCCC1)N1C(=O)c2ccccc2C1=O)C(C)(C)C)C(=O)C(=O)NC1CC1`, the Ki in series [1] was found to be 370 nM. In the series with Hepatitis C virus, this compound showed an IC50 greater than 3000 nM. In [2], the CC50 is greater than 100000 nM.
Turning to `CCC[C@H](NC(=O)[C@@H]1C[C@@H]2CCCC[C@@H]2N1C(=O)[C@@H](NC(=O)[C@@H](NC(=O)c1nccn1C)C1CCCCC1)C(C)(C)C)C(=O)C(=O)NC1CC1`, affinity in [1] was put at a Ki of 1200 nM. This compound showed an IC50 in the series with Hepatitis C virus greater than 3000 nM. The CC50 in [2] was greater than 100000 nM. In addition, the AUC with Mus musculus [4] was determined as 2.1 µM·h; with Mus musculus [5], 1.3 µM·h. The concentration with Liver turned out to be 260 nM; in the series with Plasma, 170 nM.
Consider `CCC[C@H](NC(=O)[C@@H]1C[C@@H]2CCCC[C@@H]2N1C(=O)[C@@H](NC(=O)[C@@H](NC(=O)C(=O)NC(C)C)C1CCCCC1)C(C)(C)C)C(=O)C(=O)NC1CC1`, for which the Ki in series [1] was 160 nM. Half-maximal inhibition in the series with Hepatitis C virus (IC50) required 400 nM. The CC50 in [2] was greater than 100000 nM. Also, the Selectivity index in series [3] is greater than 249.
`CCC[C@H](NC(=O)[C@@H]1C[C@@H]2CCCC[C@@H]2N1C(=O)[C@@H](NC(=O)[C@@H](NC(=O)c1cc2cc(F)ccc2[nH]1)C1CCCCC1)C(C)(C)C)C(=O)C(=O)NC1CC1` registered a Ki in series [1] of 120 nM. This compound registered an IC50 with Hepatitis C virus of 490 nM. Besides, in [2], the CC50 is greater than 100000 nM. Moreover, in [3], the Selectivity index was greater than 203.
The matching figures for `CCC[C@H](NC(=O)[C@@H]1C[C@@H]2CCCC[C@@H]2N1C(=O)[C@@H](NC(=O)[C@@H](NC(=O)[C@@H]1Cc2ccccc2N1)C1CCCCC1)C(C)(C)C)C(=O)C(=O)NC1CC1`: 320 nM, 1100 nM, greater than 100000 nM and greater than 90.
In turn, `CCC[C@H](NC(=O)[C@@H]1[C@H]2CCC[C@H]2CN1C(=O)[C@@H](NC(=O)[C@@H](NC(=O)c1cnccn1)C1CCCCC1)C(C)(C)C)C(=O)C(=O)NC1CC1` showed a Ki in series [1] of 40 nM. Moreover, the IC50 in the series on Hepatitis C virus was 350 nM. It took 82000 nM to reach half-maximal cytotoxicity in [2] (CC50). The Selectivity index in [3] worked out at 230. Moreover, the AUC in the series on Mus musculus [4] amounted to 19 µM·h; in the series with Mus musculus [5] it was 3 µM·h. For the same compound, the values for the concentration with Liver and with Plasma were 2400 nM and 370 nM, respectively. Moreover, the Ratio in series [6] worked out at 54.
